In patent publication US20240285808A1, “MOLECULAR PROBES FOR IN VIVO DETECTION OF ALDEHYDES” (The General Hospital Corporation, priority 2021, published 2024):
“And” between values parts separate entries of the source, which are not always exact repeats. Equal values may be shown once.

Experiments:
[1] = system: liver of CCl4 injured mice; format: in vivo, mouse; conditions: for ΔCNR (liver to muscle): 100 μmol/kg i.v., group mean; for ΔCNR of liver, pair-wise comparison: individual mice ID 1-6
Description: CCl4 Liver Fibrosis Model:
Male C57BL/6 mice (Charles River Laboratories, Wilmington, MA) were treated with carbon tetrachloride for 12 weeks (0.1 ml of 20% CCl4 in olive oil the first week, 30% the second week, and 40% from weeks 3-12) by oral gavage, 2-3 times per week. Control mice were fed vehicle (olive oil) only.
A total of 53 C57BL/6 mice were included to study CCl4 induced hepatic fibrosis: • A. CCl4 for 12 weeks (n=20). Each mouse was imaged with probe 1 and then imaged again 24 hours later with probe 2. Probe 1 and Probe 2 were randomly chosen from GdDOTA, GdCHyd, Mn-12, Gd-9 and Gd-10. • B. Vehicle treated control (n=20). Each mouse was imaged with probe 1 and then imaged again 24 hours later with probe 2. Probe 1 and Probe 2 were randomly chosen from GdDOTA, Mn-12, GdCHyd, Gd-9, Gd-10. • C. CCl4 for 12 weeks (n=3, another 3 pair-wise comparison have been done in group A). Each mouse was imaged with probe 1 and then imaged again 24 hours later with probe 2. […] Each mouse was imaged with probe 1 and then imaged again 24 hours later with probe 2. Probe 1 and Probe 2 were randomly choosing from Gd-9 and Gd-10. • E. CCl4 for 12 weeks (n=3). Each mouse was imaged with Gd-9. After 24 hours, the same mouse was first injected with 1000 μmol/kg of Yb-9 and then injected with 100 μmol/kg of Gd-9 15 min after the Yb-9 injection.
(§1) Animals were anesthetized with isoflurane (1-2%) and placed in a specially designed cradle with body temperature maintained at 37° C. The inhaled isoflurane level was adjusted to maintain a respiration rate of 60±5 breaths per minute. The tail vein was cannulated for intravenous (i.v.) delivery of the contrast agent while the animal was positioned in the scanner. Imaging was performed at 4.7 T using a small bore animal scanner with a custom-built volume coil. Mice were imaged with a dose of 100 μmol/kg from 30 mM stock solution of Gd or Mn complex.
For mice liver imaging, a series of baseline images (3D T1 weighted fast low angle shot magnetic resonance imaging (FLASH)) were first acquired (repetition time/echo time=15/2 ms; flip angle, 30°; field of view, 48×30 mm^2; matrix size, […]; slice thickness, 0.25 mm; acquisition time, 3 minutes 20 seconds), then a bolus of Gd or Mn complex was administered i.v. and imaging performed for a period of 45 min p.i. with the repetition acquisition of 3D T1 weighted FLASH sequences. Following the imaging session, animals were sacrificed (75 min p.i.) and liver tissue was subjected to histopathologic analysis.
For liver imaging analysis, a region of interest (ROI) was manually traced encompassing the liver parenchyma while avoiding major blood vessels. A second ROI was placed on the dorsal muscle visible in the same image slice to quantify the signal intensity in the muscle for comparison. Seven ROIs were placed in the field of view without any tissue (air) to measure the variation in background signal. More than 20 axial slices per mouse across the entire liver were analyzed in this fashion. […] Contrast to noise ratio (CNR) was calculated by measuring the difference in signal intensity (SI) between liver and muscle and normalizing to the standard deviation of the signal in the air, eq 21. ΔCNR was calculated by subtracting CNR measured prior to probe injection (CNRPre) from CNR measured after injection (CNRPost), eq 22. […]

[2] = system: lungs of bleomycin-injured mice; assay: MR imaging of lung in bleomycin lung fibrosis model; format: in vivo, mouse; conditions: for ΔLMR in lungs, pair-wise comparison: 60 min post injection, individual mice ID 1-6
Description: C57Bl/6 adult male mice at 8 weeks of age (Jackson Laboratories, Barr Harbor, ME) received a single intratracheal dose of bleomycin, 1 units/kg body weight (50 μL total volume) (Fresenius Kabi, Lake Zurich, Il) as previously described in Desogere, P., et al. Optimization of a Collagen-Targeted PET Probe for Molecular Imaging of Pulmonary Fibrosis. J Nuc Med 58, 1991-1996 (2017).
Pair-Wise Comparison Between Gd-CHyd and Gd-9 in Lung Fibrosis Model:
A series of baseline images were first acquired. […] Then anesthesia was removed, and the mouse was allowed to awake and return to cage. After 4 hours, the same mouse was anesthetized again.
Pair-wise comparison between Mn-15 and Mn-17 in lung fibrosis model: The bleomycin-injured mice were first randomly imaged with Mn-15 or Mn-17 and then 24 hours later same imaging protocol was performed in the same mice with the other probe.
as §1
For lung imaging, images were acquired with following sequences and parameters: 3D Ultrashort TE (3D-UTE, TR/TE/FA=4 ms/11.75 μs/16°, 0.6 mm isotropic spatial resolution, field of view (FOV) 75 mm×75 mm, one average, acquisition time=6.1 min) images were acquired prior to and dynamically post injection of contrast agent; Rapid Acquisition with Relaxation Enhancement (RARE, TR/TE/FA=1.5 s/8 ms/180°, 0.3 mm isotropic spatial resolution, field of view (FOV) 60 mm×50 mm, four average, acquisition time=6.1 min) and T1-weighted 3D Fast Low Angle Shot (FLASH, TR/TE/FA=10 ms/2.5 ms/30°, 0.6 mm isotropic spatial resolution, field of view (FOV) 60 mm×50 mm, one average, acquisition time=6.1 min) images were also acquired.
A total of 6 lung ROIs were defined on axial UTE images to obtain signal intensity (SI); ROIs in the dorsal muscle in each slice were also defined as reference; ROIs in the field of view without any tissue (air) were used to measure the variation in background signal. Then the lung-to muscle ratio (LMR) or contrast to noise ratio (CNR) was averaged from the 6 slices to calculate changes in LMR (ΔLMR) or CNR (ΔCNR) at each time point.
Gd-9 is a Gd-DOTA derivative with two hydrazine arms synthesized by amide coupling of two tBu-piperazin-1-ylcarbamate groups to 1,4,7,10-tetraazacyclododecane-1,4-bis(tBu-acetate)-4,10-bis(glutaric acid 1-tBu ester), followed by acid deprotection and gadolinium complexation. C57Bl/6 adult male mice at 8 weeks of age received a single intratracheal dose of bleomycin, 1 U/kg body weight (50 μL total volume) as previously described. Pair-wise imaging study of GdCHyd and Gd-9 was carried out in mice at day 14 post bleomycin injury on a 4.7 T MRI with a dose of 100 μmol/kg of each probe. For the treatment study, mice were imaged first at day 10 post bleomycin injury, then treated daily with oral gavage of either epigallocatechin gallate (EGCG, 100 mg/kg) or PBS (vehicle) for 11 days. At day 21 post bleomycin injury, the animals were imaged again. MRI consisted of T1-weighted UTE (TR/TE/flip angle=4 ms/0.011 ms/15°) images acquired prior to and up to 30 minutes following intravenous administration of Gd-9 ([…]). Following the second imaging session, animals were euthanized (60 minutes post injection), and lung tissues were removed for further analysis.

[3] = CCl4 injured mice, 45 min post injection
[4] = bleomycin injured mice (fibrotic lung)

## NN1CCN(C(=O)CCC(C(=O)[O-])N2CCN(CC(=O)[O-])CCN(CC(=O)[O-])CCN(C(CCC(=O)N3CCN(N)CC3)C(=O)[O-])CC2)CC1.[Gd+3] (stereo not drawn) [Gd-9, cis-1,4-Gd-(CHyd)2]
[1]; CCl4 injured mice, 45 min p.i.
  fold higher ΔCNR compared to Gd-CHyd (monobinder): 10 fold
[1]; [3]
  ΔCNR (liver to muscle): 2.2±0.8 and 2.2 ± 0.9
  ΔCNR of liver, pair-wise comparison: 1.9 (2×) and 3.2 and 1.3 and 2.1 and 1.5
[1]; CCl4 injured mice, 45 min post injection, blocking dose of Yb-9 (1000 μmol/kg) 15 min before, individual mice ID 1-3
  ΔCNR of liver, With blocking: 0.1 (2×) and 0.3
[1]; CCl4 injured mice, 45 min post injection, individual mice ID 1-3
  ΔCNR of liver, Without blocking: 3.6 and 2.7 and 3.0
[2]; bleomycin day 14, pairwise study, same time point post injection
  fold higher signal in fibrotic lung than GdCHyd: 3 fold
[2]; bleomycin injured mice, 25 min post injection, individual mice ID 1-4
  ΔCNR of lung, pair-wise comparison: 3.7 and 4.3 and 3.0 and 4.0

## NN1CCN(C(=O)CCC(C(=O)[O-])N2CCN(CC(=O)[O-])CCN(C(CCC(=O)N3CCN(N)CC3)C(=O)[O-])CCN(CC(=O)[O-])CC2)CC1.[Gd+3] (stereo not drawn) [Gd-10, trans-1,7-Gd-(CHyd)2]
[1]; [3]
  ΔCNR (liver to muscle): 1.3±0.4 and 1.5 ± 0.9
  ΔCNR of liver, pair-wise comparison: 1.3 and 2.3 and 1.2 and 0.9 and 1.4 and 1.0

## NNC(CCC(=O)NCCCN1CCN(CC(=O)[O-])Cc2cccc(n2)CN(CC(=O)[O-])CC1)C(=O)O.[Mn+2] (centres unmarked) [Mn-15]
[1]; 20 minutes post injection
  fold higher DCNR in CCl4 treated vs vehicle treated mice: 3 fold
[1]; [3]
  ΔCNR (liver to muscle): 1.2 ± 0.2
[2]
  ΔLMR in lungs, pair-wise comparison: 0.06 and 0.11 and 0.18 (2×) and 0.08 and 0.15
[2]; Bleomycin injured mice
  Change in lung to muscle ratio (ΔLMR): 0.13
[2]; Naïve mice
  Change in lung to muscle ratio (ΔLMR): 0.00
[2]; Naïve mice (normal lung)
  Washout T1/2 in lungs: 13.7 ± 1.4 min
[2]; [4]
  Washout T1/2 in lungs: 33.5 ± 5.1 min and 33.6 ± 5.1 min

## NOC(CCC(=O)NCCCN1CCN(CC(=O)[O-])Cc2cccc(n2)CN(CC(=O)[O-])CC1)C(=O)O.[Mn+2] (centres unmarked) [Mn-16]
[2]; Bleomycin injured mice
  Change in lung to muscle ratio (ΔLMR): 0.18
[2]; Naïve mice
  Change in lung to muscle ratio (ΔLMR): 0.00
[2]; Naïve mice (normal lung)
  Washout T1/2 in lungs: 17.9 ± 3.2 min
[2]; [4]
  Washout T1/2 in lungs: >240 min

## NNCC(=O)NCCCN1CCN(CC(=O)[O-])Cc2cccc(n2)CN(CC(=O)[O-])CC1.[Mn+2] [Mn-17]
[2]
  ΔLMR in lungs, pair-wise comparison: 0.09 and 0.18 (2×) and 0.27 and 0.15 (2×)
[2]; Bleomycin injured mice
  Change in lung to muscle ratio (ΔLMR): 0.15
[2]; Naïve mice
  Change in lung to muscle ratio (ΔLMR): 0.00
[2]; Naïve mice (normal lung)
  Washout T1/2 in lungs: 15.1 ± 1.9 min
[2]; [4]
  Washout T1/2 in lungs: 41.5 ± 6.3 min

## CN(C)C(CCC(=O)NCCCN1CCN(CC(=O)[O-])Cc2cccc(n2)CN(CC(=O)[O-])CC1)C(=O)O.[Mn+2] (centres unmarked) [Mn-18]
[2]; Bleomycin injured mice
  Change in lung to muscle ratio (ΔLMR): 0.04
[2]; Naïve mice
  Change in lung to muscle ratio (ΔLMR): 0.01
[2]; Naïve mice (normal lung)
  Washout T1/2 in lungs: 15.7 ± 1.8 min
[2]; [4]
  Washout T1/2 in lungs: 18.9 ± 2.0 min
